Laboratory results reported in patent US6894058B1, “Use of 3-hydroxy-3-methylgutaryl coenzym a reductase inhibitors for the manufacture of a medicament for the treatment of diabetic neuropathy” (AstraZeneca AB, priority 1999, dated 2005).

Columns and labels:
Diabetic rats [1] = test: Sciatic nerve blood flow by hydrogen clearance microelectrode polarography in streptozotocin-diabetic rats; settings: for Sciatic Nerve Blood Flow: group mean ± SEM (number of rats in brackets); for nerve blood flow, effect in words: animal model of diabetic neuropathy
Diabetic rats [2] = test: Sciatic nerve motor conduction velocity in streptozotocin-diabetic rats; format: in vivo, Sprague-Dawley rats; settings: for Sciatic Nerve Motor Conduction Velocity: group mean ± SEM (number of rats in brackets); for nerve conduction velocity (NCV), effect in words: animal model of diabetic neuropathy
Description: Motor nerve conduction velocity was measured (as previously described by Cameron et al, Diabetologia, 1993, Vol. 36, pages 299-304) between sciatic notch and knee in the nerve branch to tibialis anterior muscle, which is representative of the whole sciatic nerve in terms of susceptibility to diabetes and treatment effects.

Diabetic rats [3] = test: Saphenous nerve sensory conduction velocity in streptozotocin-diabetic rats; format: in vivo, Sprague-Dawley rats; settings: for Saphenous Nerve Sensory Conduction Velocity: group mean ± SEM (number of rats in brackets)
Description: Sensory conduction velocity in saphenous nerve was measured between the groin and ankle (as previously described by Cameron et al. Quarterly Journal of Experimental Physiology, 1989, vol. 74, pages 917-926).

[4] = Diabetic + 2 weeks of dosing at 50 mg/kg
[5] = Diabetic + 2 weeks of dosing at 20 mg/kg
[6] = Rattus norvegicus, Dose response, 5 groups of 8 rats, dose ranged from 0.3-20 mg/kg

| SMILES | Sciatic Nerve Blood Flow (Diabetic rats [1]; [4]) | nerve blood flow, effect in words (Diabetic rats [1]) | Sciatic Nerve Motor Conduction Velocity (Diabetic rats [2]; [5]) | Sciatic Nerve Motor Conduction Velocity (Diabetic rats [2]; [4]) | nerve conduction velocity (NCV), effect in words (Diabetic rats [2]) | Saphenous Nerve Sensory Conduction Velocity (Diabetic rats [3]; [5]) | Saphenous Nerve Sensory Conduction Velocity (Diabetic rats [3]; [4]) | Sciatic Nerve Blood Flow (Diabetic rats [1]; [5]) | ED50 (Diabetic rats [2]; [6]) | ED50 (Diabetic rats [3]; [6]) |
| --- | --- | --- | --- | --- | --- | --- | --- | --- | --- | --- |
| CC(C)c1c(C(=O)Nc2ccccc2)c(-c2ccccc2)c(-c2ccc(F)cc2)n1CC[C@@H](O)C[C@@H](O)CC(=O)O [Atorvastatin, atorvastatin] | 16.96 ± 1.39 ml/min/100 g (6) | improvement | 61.53 ± 0.76 (6) | 63.59 ± 0.69 (6) | improvement | 59.77 m/s ± 0.93 (6) | 60.72 m/s ± 0.94 (6) |  |  |  |
| CC(C)c1nc(N(C)S(C)(=O)=O)nc(-c2ccc(F)cc2)c1/C=C/[C@@H](O)C[C@@H](O)CC(=O)O [The AGENT, (E)-7-[4-(4-fluorophenyl)-6-isopropyl-2-[methyl(methylsulfonyl)amino]pyrimidin-5-yl](3R,5S)-3,5-dihydroxyhept-6-enoic acid] |  | improvement | 63.34 ± 0.61 (8) |  | improvement | 60.57 m/s ± 0.83 (8) |  | 16.19 ± 0.51 ml/min/100 g (8) | 2.3 mg/kg | 0.9 mg/kg |
